Measured values from patent US20100174075A1, “USE OF NITRIC OXIDE-RELEASING STATINS IN THE TREATMENT OF PULMONARY ARTERIAL HYPERTENSION” (NICOX S.A., priority 2007, published 2010).

Experiments:
[1] = test system: Human pulmonary artery smooth muscle cells (PASMCs); assay: DNA synthesis by [3H-methyl]-thymidine incorporation in PDGF-stimulated PASMCs; assay type: cell-based; settings: PDGF-BB 5 ng/ml, 24 hours
Procedure: DNA synthesis was measured by [^3H-methyl]-thymidine incorporation over 24 hours as previously described.
Human pulmonary artery smooth muscle cells (PASMCs) were seeded in 48-well plates at a density of 5×10^4 cells/well in Dulbecc's modified Eagle medium (DMEM) containing 10% fetal bovine […] (FBS). Cells were allowed to adhere overnight, providing a monolayer of approximately 80-90% confluence, and then quiesced for 48 hours with daily changes in serum-free DMEM. Cells were subsequently incubated in fresh medium containing 0.25 μCi/well [^3H-methyl]-thymidine (GE Healthcare, Little Chalfont, Buck's, UK) and treated with pravastatin and NO-releasing pravastatin (Example 1 of WO 2004/105754) at stated concentrations in the presence and absence of recombinant human platelet-derived growth factor-BB (PDGF) (5 ng/ml). Four to six replicates were analysed per treatment and [^3H-methyl]-thymidine uptake determined by liquid scintillation analysis (2200CA TRI-CARB, United Technologies Packcard, Pangbourne, UK).

[2] = test system: Endothelin-1 (ET-1) release from PASMCs; assay: TGF-β1-stimulated ET-1 release from PASMCs (chemiluminescent immunoassay); assay type: cell-based, human; settings: 1 μM; TGF-β1 10 ng/ml; PASMCs conditioned medium
Procedure: Endothelin-1 (ET-1) release from PASMCs was measured in conditioned media using a chemiluminescent immunoassay system (QuantiGlo®, R&D Systems, UK). Cells were grown to confluence in 24-well plates (5×10^4 cells per well) in DMEM containing 10% FBS and serum-deprived for 24-hours prior to stimulation with transforming growth factor-[…] (TGF-β1) (10 ng/ml) and treatment with pravastatin and NO-releasing pravastatin (Example 1 of WO 2004/105754). Release experiments were also conducted in the presence of mevalonic acid (MVA), farnesylpyrophosphate (FPP), geranylgeranylpyrophosphate (GGPP) and inhibitors of geranylgeranyl transferase (GGTI-2133), farnesyl transferase (FTI-277) and Rho Kinase (Y27632). Production of MMP-9 was induced by dual stimulation with tumour necrosis factor-α (TNF-α) (10 ng/ml) and phorbol 12-[…] 13-acetate (PMA) (0.1 μM) and measured in conditioned medium using a Biotrack® ELISA-based immunoassay (GE Healthcare, UK). In the presence of TGF-β1 (10 ng/ml), ET-1 production by PASMCs increased markedly, compared with control serum-deprived cells.

CC[C@H](C)C(=O)O[C@H]1C[C@H](O)C=C2C=C[C@H](C)[C@H](CC[C@@H](O)C[C@@H](O)CC(=O)O)[C@H]21 [Pravastatin]
[3H-Methyl]-thymidine incorporation (% of PDGF) ([1]; 1 μM): 95.0 ± 3.6 % of PDGF
[3H-Methyl]-thymidine incorporation (% of PDGF) ([1]; 5 μM): 92.5 ± 4.2 % of PDGF
[3H-Methyl]-thymidine incorporation (% of PDGF) ([1]; 10 μM): 89.5 ± 2.4 % of PDGF
ET-1 (% of TGF-β1) [2]: 89.9 ± 12.8 % of TGF-β1
